{"source": "patent US20230354703A1", "about": "“ORGANIC COMPOUND AND LIGHT-EMITTING DEVICE” (SEMICONDUCTOR ENERGY LABORATORY CO., LTD., priority 2022, published 2023)", "key": {"[1]": {"settings": "statement in words, background/description; cited from earlier work"}, "[2]": {"assay": "water-solubility examined by calculation: polarization term δp of the solubility parameter (classical molecular dynamics, Desmond/OPLS2005)", "settings": "from the difference between the calculated δp and the δp of water (16.0); larger difference = lower solubility", "protocol": "Then, the water-solubility of 2,9hpp2Phen was examined by calculation and the results are shown.\nDesmond was used as software for the classical molecular dynamics calculation, and OPLS2005 was used for the force field. The calculation was performed using a high performance computer (Apollo 6500 manufactured by Hewlett Packard Enterprise Development).\nA standard cell containing approximately 32 molecules is used a calculation model. […] After that, the structures are moved and rotated at random to move the molecules by Monte Carlo simulated annealing using OPLS2005 for the force field. Furthermore, the molecules are moved toward the center of the standard cell such that the density thereof is maximized; thus, the initial arrangement is obtained.\nAs a basis function, 6-31G** was used, and as a functional, B3LYP-D3 was used. […]\nThe aforementioned initial arrangement is subjected to Brownian motion simulation and then defined in an NVT ensemble; subsequently, calculation in an NPT ensemble is performed for an enough relaxation time (30 ns) under the conditions of 1 atm and 300 K with respect to time steps that reproduce molecular vibration (2 fs), so that an amorphous solid is calculated. […]\nThe actually measured value δp corresponding to the polarization term for the water-solubility parameter is disclosed as 16.0 in Japanese Published Patent Application No. 2017-173056, for example. […]"}}}
{"smiles": "c1cc(N2CCCN3CCCN=C32)nc(N2CCCN3CCCN=C32)c1", "note": "[hpp2Py, 1,1′-pyridine-2,6-diyl-bis(1,3,4,6,7,8-hexahydro-2H-pyrimido[1,2-a]pyrimidine)]", "values": [{"measurement": "solubility in water", "setting": "[1]", "value": "highly soluble in water"}]}
{"smiles": "c1cc2ccc3ccc(N4CCCN5CCCN=C54)nc3c2nc1N1CCCN2CCCN=C21", "note": "[2,9hpp2Phen, 2,9-bis(1,3,4,6,7,8-hexahydro-2H-pyrimido[1,2-a]pyrimidin-1-yl)-1,10-phenanthroline]", "values": [{"measurement": "solubility in water compared with hpp2Py", "setting": "[2]", "value": "less soluble in water than hpp2Py"}]}
{"smiles": "c1cc(N2CCCN3CCCN=C32)c2ccc3c(N4CCCN5CCCN=C54)ccnc3c2n1", "note": "[4,7hpp2Phen, 4,7-bis(1,3,4,6,7,8-hexahydro-2H-pyrimido[1,2-a]pyrimidin-1-yl)-1,10-phenanthroline]", "values": [{"measurement": "solubility in water compared with hpp2Py", "setting": "[2]", "value": "less soluble in water than hpp2Py"}]}
